Experimental data: patent publication US8747891B2, “Ceramide anionic liposome compositions” (The Penn State Research Foundation, priority 2011, dated 2014)

Assays:
[1] = tested on: Pane 1 pancreatic cancer cells; assay: MTS cell viability assay; format: cell-based; details: 24 hrs; 3.2 μM liposomes; 0.01, 0.1 or 1 μM vinblastine; p<0.05 free vs encapsulated vinblastine
Description: Pane 1 pancreatic cancer cells were treated with 3.2 μM anionic (A) and neutral ceramide (C6) or non-ceramide nanoliposomes that either contained 0.01, 0.1 or 1 μM vinblastine or PBS. Ghost liposomes contained no ceramide or vinblastine. Unencapsulated (free) vinblastine was also administered at similar concentrations. All treatments were for 24 hrs.
Cell viability was assessed by MTS assay, which measures cellular respiration as a function of reduction of MTS to formazene at 490 nm. […] N=6 individual samples for each condition, replicated in triplicate.
MTS (3-(4,5-dimethylthiazol-2-yl)-5-(3-carboxymethoxyphenyl)-2-(4-sulfophenyl)-2H-tetrazolium), in the presence of phenazine methosulfate (PMS), produces a reduced formazan product, whose purple color can be assessed. In living cells, reduced formazan has an absorbance maximum at 490-500 nm in phosphate-buffered saline. The MTS assay is often described as a ‘one-step’ MTT assay, which offers the convenience of adding the reagent straight to the cell culture without the intermittent steps required in the MTT assay. However this convenience makes the MTS assay susceptible to cololmetric interference as the intermittent steps in the MTT assay remove traces of colored compounds, whilst these remain in the microtiter plate in the one-step MTS assay.

primary human AML cells = assay: Clonogeneic growth in semisolid media; format: cell-based; details: 12-14 days in semi-solid medium; FIG. 3A
Text: For FIG. 3A, primary human AML cells (n=5) were thawed and grown for 12-14 days in semi-solid medium with the indicated concentration of Lip-C6 or Lip-ghost and/or vinblastine.

`CC[C@]1(O)C[C@@H]2CN(CCc3c([nH]c4ccccc34)[C@@](C(=O)OC)(c3cc4c(cc3OC)N(C)[C@H]3[C@@](O)(C(=O)OC)[C@H](OC(C)=O)[C@]5(CC)C=CCN6CC[C@]43[C@@H]65)C2)C1` [vinblastine] was tested, and the “cell viability (MTS)” value [1] was “Only the high concentration of free vinblastine reduced cell viability” and the “growth and survival / colony formation” value (primary human AML cells) was “potentiates the inhibitory activity of C6 ceramide nanoliposomes”.
